These results are taken from PubChem BioAssay AID1259407 (Chemical Carcinogenesis Research Information System (CCRIS), 2018).

Active and inactive are the calls of the source. The rule behind the calls is not given here.

This data set relates to CCRIS mutagenicity, Ames/micronucleus/aberration tests. Description: CCRIS mutagenicity studies. The conditions noted are these: Test System: AMES SALMONELLA TYPHIMURIUM
The mark [1] stands for this setting: Strain/Indicator: TA98, Metabolic Activation: NONE, Method: PREINCUBATION

On to `Nc1cc(S(=O)(=O)O)ccc1O`, for which the mutagenic call is “inactive; negative” (Strain/Indicator: TA97, Metabolic Activation: HAMSTER, LIVER, S-9, AROCLOR 1254 (10 OR 30%), Method: PREINCUBATION); “inactive; negative” (Strain/Indicator: TA97, Metabolic Activation: NONE, Method: PREINCUBATION); “inactive; negative” (Strain/Indicator: TA97, Metabolic Activation: RAT, LIVER, S-9, AROCLOR 1254 (10 OR 30%), Method: PREINCUBATION); “inactive; negative” (Strain/Indicator: TA98, Metabolic Activation: HAMSTER, LIVER, S-9, AROCLOR 1254 (10 OR 30%), Method: PREINCUBATION); “inactive; negative” under setting [1]; “inactive; negative” (Strain/Indicator: TA98, Metabolic Activation: RAT, LIVER, S-9, AROCLOR 1254 (10 OR 30%), Method: PREINCUBATION). Moreover, the mutagenic call is, setting by setting: (Strain/Indicator: TA100, Metabolic Activation: HAMSTER, LIVER, S-9, AROCLOR 1254 (10 OR 30%), Method: PREINCUBATION) “inactive; negative”; (Strain/Indicator: TA100, Metabolic Activation: NONE, Method: PREINCUBATION) “inactive; negative”; (Strain/Indicator: TA100, Metabolic Activation: RAT, LIVER, S-9 AROCLOR 1254 (10 OR 30%), Method: PREINCUBATION) “inactive; negative”; (Strain/Indicator: TA1535, Metabolic Activation: HAMSTER, LIVER, S-9, AROCLOR 1254 (10 OR 30%), Method: PREINCUBATION) “inactive; negative”; (Strain/Indicator: TA1535, Metabolic Activation: NONE, Method: PREINCUBATION) “inactive; negative”; (Strain/Indicator: TA1535, Metabolic Activation: RAT, LIVER, S-9, AROCLOR 1254 (10 OR 30%), Method: PREINCUBATION) “inactive; negative”.
Turning to `Cn1c(NS(=O)(=O)O)nc2c3nc(CO)cnc3ccc21`, the mutagenic call runs as follows: under setting [1], “inactive; negative”; (Strain/Indicator: TA98, Metabolic Activation: RAT, LIVER, S-9, AROCLOR 1254, Method: PREINCUBATION) “inactive; negative”.
Regarding `O=P(O)(OCC(Br)CBr)OCC(Br)CBr` (stereo unspecified), the mutagenic call is “active; positive” (Strain/Indicator: TA100, Metabolic Activation: RAT, LIVER, S-9, AROCLOR 1254, Method: STANDARD PLATE) and “active; positive” (Strain/Indicator: TA1535, Metabolic Activation: RAT, LIVER, S-9, AROCLOR 1254, Method: STANDARD PLATE).
